Data taken from patent US20220233641A1, “Methods and Compositions for Treating Obesity and/or Skin Disorders” (THE TRUSTEES OF THE UNIVERSITY OF PENNSYLVANIA, priority 2019, published 2022).
“Also recorded” adds a separate entry of the source.

What was measured:
HFD-fed TSLP-R KO mice = experiment: Topical MC903 in HFD-fed TSLP-R KO mice; type: in vivo, mouse; conditions: HFD-fed TSLP-R-deficient mice, topical MC903 2 nmol/ear, 12 weeks
Description: (§1) TSLP-R KO mice were fed a normal chow (NC) or 40% high fat diet (HFD) for 12 weeks. The mice were topically treated with either vehicle (EtOH) or MC903 (2 nmol/ear) on both ears Monday, Wednesday, and Friday on odd weeks. Mice were weighed on the indicated time points and plotted as mean±SEM. Glucose tolerance test was performed on Week 12 by injection of glucose and subsequent measurements of blood glucose levels. AUC analysis is performed on the GTT curves. * indicates statistical significance of p<0.05 by Student t-test.
as §1, with “TSLP-R knock out (KO) mice were” for “TSLP-R KO mice were”, “tolerance test (GTT) was performed” for “tolerance test was performed”

human individual = experiment: Topical MC903 application to arm or leg of human individuals (remote effects on sebum, dry skin, scalp hair, dry eye); type: in vivo
Description: MC903 was applied topically to the right arm of an individual daily. Sebum measurements were obtained by cleaning the forehead with ethanol wipe, resting for 15 minutes, and placing sebutape on the forehead for 2 minutes. Black dots on the blue and white background of the tape indicates the presence of sebum at each day post treatment.
MC903 was applied topically to the right arm of an individual daily. Photographs of the right hand before and after 3 or 5 days post treatment is shown. The individual was treated for 14 days total with no need of hand cream at least 9 weeks even after treatment was discontinued. In certain embodiments, secretion of sebum lasts after cessation of treatment.
MC903 was applied topically to the left arm daily of an individual for 14 days (1st treatment). Treatment was stopped for 4 weeks and restarted for an additional 2 weeks (2nd treatment) on the right arm daily. Photographs of the scalp before, 2 weeks after 1st treatment, 11 days after 2nd treatment, and 8 weeks after 2nd treatment are shown.[…].
MC903 was applied topically to the left arm daily of an individual and the right leg another individual for 14 days (1st treatment). The presence of dry eye symptoms was subjectively evaluated in the two individuals before and after treatment. The response is plotted in a bar graph.

HFD-fed mice = experiment: Topical MC903 in HFD-fed WT C57BL/6 mice (weight gain, eWAT, GTT, HOMA-IR, liver histology); type: in vivo, mouse
Description: WT C57BL/6 mice were fed a normal chow (NC) or 40% high fat diet (HFD) for 12 weeks. The mice were topically treated with either vehicle (EtOH) or MC903 (2 nmol/ear) on both ears Monday, Wednesday, and Friday on odd weeks. (FIG. 1A) Mice were weighed weekly and % change from baseline is plotted as mean±SEM. (FIG. 1B) The mice were euthanized on Week 12 and the epididymal fat pads were weighed. (FIG. 1C, FIG. 1D) Glucose tolerance test was performed on Week 12 by injection of glucose and subsequent measurements of blood glucose levels. HOMA-IR analysis was performed after an overnight fast at Week 12. *, **, and *** indicate statistical significance of p<0.05, p<0.01, and p<0.001, respectively by Student t-test or ANOVA.
WT C57BL/6 mice were fed a normal chow (NC) or 40% high fat diet (HFD) for 12 weeks. The mice were topically treated with either vehicle (EtOH) or MC903 (2 nmol/ear) on both ears Monday, Wednesday, and Friday on odd weeks. Shown are representative histological images of the liver on Week 12.
Wildtype C57BL/6 mice were fed a normal chow (NC) or 40% high fat diet (HFD) for 12 weeks. The mice were topically treated with either vehicle (EtOH) or MC903 (2 nmol/ear) on both ears Monday, Wednesday, and Friday on odd weeks. (A) Mice were weighed weekly and % change from baseline is plotted as mean±SEM. (B) The mice were euthanized on Week 12 and the epididymal fat pads were weighed. (C, D) Glucose tolerance test (GTT) was performed on Week 12 by injection of glucose and subsequent measurements of blood glucose levels. Homeostatic model assessment-insulin resistance (HOMA-IR) analysis was performed after an overnight fast at Week 12. *, **, and *** indicate statistical significance of p<0.05, p<0.01, and p<0.001, respectively by Student t-test or ANOVA.
C57BL/6 mice were fed a normal chow (NC) or 40% high fat diet (HFD) for 12 weeks. The mice were topically treated with either vehicle (EtOH) or MC903 (2 nmol/ear) on both ears Monday, Wednesday, and Friday on odd weeks. Shown are representative histological images of the liver on Week 12.

[1] = HFD-fed mice, Week 12, vs vehicle

Compound: C=C1/C(=C\C=C2/CCC[C@]3(C)[C@@H]([C@H](C)/C=C/[C@@H](O)C4CC4)CC[C@@H]23)C[C@@H](O)C[C@@H]1O [MC903, 26,27-cyclo-22-ene-1α,24S-dihydroxyvitamin D3]
- weight gain and metabolic parameters (HFD-fed TSLP-R KO mice): does not prevent weight gain or improve metabolic parameters
- time with no need of hand cream after treatment was discontinued (human individual; human individual treated for 14 days total): at least 9 weeks
- scalp hair growth (human individual; human individual, 2 cycles of 2-week topical MC903 on the arm): substantial recovery of hair growth; also recorded: remotely promotes scalp hair growth
- sebum on the forehead (sebutape) (human individual; one human individual, MC903 topically on the arm daily): increasing amounts of sebum on the forehead; also recorded: remotely increases sebum secretion
- eczematous dry skin of a hand (human individual; one human individual, MC903 topically on the right arm daily): marked improvement; also recorded: remotely cures dry skin of the hand
- dry eye symptoms (subjective) (human individual; two human individuals, MC903 on arm or leg daily for 14 days): improvement in dry eye symptoms; also recorded: remotely improves dry eye symptoms
- weight gain (HFD-fed mice; HFD-fed WT C57BL/6 mice, topical MC903 2 nmol/ear, 12 weeks, vs vehicle (EtOH)): significantly reduced weight gain; also recorded: significantly less weight gain; also recorded: prevention weight gain
- epididymal white adipose tissue (eWAT) weight (HFD-fed mice; [1]): significantly decreased
- fat deposition in the liver (histology) (HFD-fed mice; [1]): markedly reduced; also recorded: appeared very similar to the tissue of mice fed with normal chow; also recorded: prevention of HFD-induced hepatosteatosis
- metabolic parameters (GTT and HOMA-IR) (HFD-fed mice; [1]): improved metabolic parameters; also recorded: improvement in metabolic parameters
